Experimental data reported in patent US9617276B2, “Compounds and methods for treating AIDS and HIV infections” (priority 2009, dated 2017).
Where “and” joins values, the source holds several entries; their conditions need not be identical. Equal values may be shown once. Read-outs that look alike come from different tables or passages of the source.

Columns and labels:
cytotoxicity CC50 = format: cell-based, Human; details: human
HIV-2ROD = experiment: drug susceptibility, MT-2 cells, MTT assay, HIV-2ROD; format: cell-based
Method: (§1) All assays were performed in duplicate or triplicate. […] All assays were performed in duplicate or triplicate.
(§2) Each selectivity index denotes a ratio of CC50 to EC50 against HIV-1LAI N.D., not done.

HIV-1LAI = experiment: drug susceptibility, MT-2 cells, MTT assay, HIV-1LAI; format: cell-based; details: for Selectivity Index: ratio of CC50 to EC50 against HIV-1LAI
Method: as §1, §2

HIV-1MDR/G = format: cell-based; details: for EC50 (μM), HIV-1MDR/G (SI): PHA-PBMCs, p24 Gag; for n-fold change of EC50, HIV-1MDR/G: compared to wild-type HIV-1ERS104pre
Method: (§3) The susceptibility of HIV-1LAI and primary HIV-1 isolates to various drugs were determined as described previously (Koh et al. 2003 Antimicrob Agents Chemother 47:3123-9). Briefly, MT-2 cells (2×10^4/ml) were exposed to 100 50% tissue culture infectious doses (TCID50S) of HIV-1LAI, in the presence or absence of various concentrations of drugs in 96-well microculture plates and were incubated at 37° C. for 7 days. After 100 μl of the medium was removed from each well, 3-(4,5-dimetylthiazol-2-yl)-2,5-diphenyltetrazolium bromide (MTT) solution (10 μl, 7.5 mg/ml in phosphate-buffered saline) was added to each well in the plate, followed by incubation at 37° C. for 3 h. […] All assays were performed in duplicate or triplicate. To determine the susceptibility of primary HIV-1 isolates to drugs, phytohemagglutinin-activated peripheral blood mononuclear cells (PHA-PBMCs; 106/ml) were exposed to 50 TCID50S of each. The target cells were exposed to HIV-1104pre or drug-resistant HIV-1 in the presence or absence of various concentrations of drugs and were incubated for 7 days. Upon the conclusion of the culture, the amounts of p24 Gag protein in the supernatants were determined using a fully automated chemiluminescent enzyme immunoassay system (Lumipulse F; Fujirebio Inc., Tokyo, Japan) (Maeda et al. 2001 J Biol Chem 276:35194-200). To determine the drug susceptibility of certain laboratory HIV-1 strains, MT-4 cells were used as target cells. In brief, MT-4 cells (10^5/ml) were exposed to 100 TCID50S of drug-resistant HIV-1 strains in the presence or absence of various concentrations of drugs and on day 7 of culture, the supernatant was harvested and the amounts of p24 Gag protein were determined. […] All assays were performed in duplicate or triplicate.
(§4) These clinical strains contained 9 to 14 amino acid substitutions in the protease-encoding region, which have reportedly been associated with HIV-1 resistance to various PIs.
(§5) Amino acid substitutions identified in the protease-encoding region compared to the consensus type B sequence cited from the Los Alamos database include L63P in HIV-1ERS104pre; L10I, K14R, L33I, M36I, M46I, F53I, K55R, I62V, L63P, A71V, G73S, V82A, L90M, and I93L in HIV-1MDR/B; L10I, I15V, K20R, L24I, M36I, M46L, I54V, I62V, L63P, K70Q, V82A, and L89M in HIV-1MDR/C; L10I, V11I, T12E, I15V, L19I, R41K, M46L, L63P, A71T, V82A, and L90M in HIV-1MDR/G; L10I, K14R, R41K, M46L, I54V, L63P, A71V, V82A, L90M, I93L in HIV-1MDR/TM; L10I, K43T, M46L, I54V, L63P, A71V, V82A, L90M, and Q92K in HIV-1MDR/MM; L10I, L24I, I33F, E35D, M36I, N37S, M46L, I54V, R57K, I62V, L63P, A71V, G73S, and V82A in HIV-1MDR/JSL. HIV-1ERS104pre served as a source of wild-type HIV-1. EC50s were determined by using PHA-PBMs as target cells, and inhibition of p24 Gag protein production by each drug was used as an end point. Numbers in parentheses represent n-fold changes of EC50s for each isolate compared to EC50s for wild-type HIV-1ERS104pre.

HIV-1MDR/C = format: cell-based; details: for EC50 (μM), HIV-1MDR/C (SI): PHA-PBMCs, p24 Gag; for n-fold change of EC50, HIV-1MDR/C: compared to wild-type HIV-1ERS104pre
Method: as §3, §4, §5

HIV-1MDR/TM = format: cell-based; details: for EC50 (μM), HIV-1MDR/TM (SI): PHA-PBMCs, p24 Gag; for n-fold change of EC50, HIV-1MDR/TM: compared to wild-type HIV-1ERS104pre
Method: as §3, §4, §5

HIV-1MDR/B = format: cell-based; details: for EC50 (μM), HIV-1MDR/B (SI): PHA-PBMCs, p24 Gag; for n-fold change of EC50, HIV-1MDR/B: compared to wild-type HIV-1ERS104pre
Method: as §3, §4, §5

HIV-2EHO = experiment: drug susceptibility, MT-2 cells, MTT assay, HIV-2EHO; format: cell-based
Method: as §1, §2

HIV-1 = experiment: antiviral assay (IC50); format: cell-based; details: read-out: IC50
Method: The inhibitory potencies of acyclic and cyclic inhibitors were measured by the assay protocol of Toth and Marshall (Toth, M. V.; Marshall, G. R. A simple, continuous fluorometric assay for HIV protease. Int. J. Pep. Protien Res. 1990, 36, 544-55).

HIV-1NFV5μM = experiment: microbe, parasite or virus in culture; format: cell-based; details: for EC50: Human immunodeficiency virus 1, MT4, read-out: EC50 (μM), HIV-1NPV5 μM; for n-fold change in EC50, HIV-1NPV5 μM: compared to wild-type HIV-1NL4-3
HIV-1AZV5μM = experiment: microbe, parasite or virus in culture; format: cell-based; details: for EC50: Human immunodeficiency virus 1, MT4, read-out: EC50 (μM), HIV-1AZV5 μM; for n-fold change in EC50, HIV-1AZV5 μM: compared to wild-type HIV-1NL4-3
HIV-1SQV5μM = experiment: microbe, parasite or virus in culture; format: cell-based; details: for EC50: Human immunodeficiency virus 1, MT4, read-out: EC50 (μM), HIV-1SQV5 μM; for n-fold change in EC50, HIV-1SQV5 μM: compared to wild-type HIV-1NL4-3
[1] = tested on: HIV-1ERS104pre (wild-type); experiment: p24 Gag inhibition in PHA-PBMCs, HIV-1ERS104pre; format: cell-based; details: mean ± 1 SD
Method: as §3, §4, §5

[2] = tested on: multidrug-resistant clinical HIV-1 isolates (HIV-1MDR); experiment: microbe, parasite or virus in culture; format: cell-based; details: Human immunodeficiency virus 1, read-out: EC50 with multidrug-resistant clinical HIV-1 isolates (mostly)
Summary of the method: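 Clinical PI-resistant isolates (9–14 protease-region substitutions) are tested in phytohemagglutinin-stimulated peripheral blood mononuclear cells exposed to 50 TCID50 of virus in the presence of varying drug concentrations. Cultures run 7 days before supernatant p24 Gag is measured. The endpoint is the EC50 for blocking p24 production.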

| SMILES | CC50 (cytotoxicity CC50) | Selectivity Index (HIV-1LAI) | EC50 (μM), HIV-1MDR/G (SI) (HIV-1MDR/G) | n-fold change of EC50, HIV-1MDR/G (HIV-1MDR/G) | EC50 (μM), HIV-1MDR/C (SI) (HIV-1MDR/C) | n-fold change of EC50, HIV-1MDR/C (HIV-1MDR/C) | EC50 (μM), HIV-1MDR/TM (SI) (HIV-1MDR/TM) | n-fold change of EC50, HIV-1MDR/TM (HIV-1MDR/TM) | EC50 (μM), HIV-1MDR/B (SI) (HIV-1MDR/B) | n-fold change of EC50, HIV-1MDR/B (HIV-1MDR/B) | EC50 (HIV-1NFV5μM) | n-fold change in EC50, HIV-1NPV5 μM (HIV-1NFV5μM) | EC50 (HIV-1AZV5μM) | n-fold change in EC50, HIV-1AZV5 μM (HIV-1AZV5μM) | EC50 (HIV-1SQV5μM) | n-fold change in EC50, HIV-1SQV5 μM (HIV-1SQV5μM) | EC50 (μM), HIV-1ERS104pre (wild-type SI) [1] | other results |
| --- | --- | --- | --- | --- | --- | --- | --- | --- | --- | --- | --- | --- | --- | --- | --- | --- | --- | --- |
| COc1ccc2c(c1)OCCCC=CCCCCN(CC(O)C(Cc1ccccc1)NC(=O)OC1COC3OCCC13)S2(=O)=O (stereo not shown) [Compound 14b] | 33.1 ± 2.5 µM | 8,280 | 0.028 ± 0.004 µM | (4) | 0.029 ± 0.001 µM | (4) | 0.072 ± 0.014 µM | (10) | 0.089 ± 0.016 µM | (13) | 0.041 ± 0.006 µM | (5) | 0.03 ± 0.006 µM | (3) | 0.046 ± 0.021 µM | (5) |  | EC50 (HIV-2ROD; Human immunodeficiency virus 2, MT2, read-out: EC50 (μM) for HIV-2ROD): 0.025 ± 0.002 µM; EC50 (HIV-1LAI; Human immunodeficiency virus 1, MT2, read-out: EC50 (μM) for HIV-1LAI): 0.004 ± 0.001 µM; EC50 (HIV-2EHO; Human immunodeficiency virus 2, MT2, read-out: EC50 (μM) for HIV-2EHO): 0.018 ± 0.013 µM; IC50 (HIV-1; Human immunodeficiency virus 1, Table 2): < 10 nM; IC50 (HIV-1; Human immunodeficiency virus 1): < 49 nM; EC50 (μM), HIV-1ERS104pre (wild-type SI) ([1]; listed as GRL-286): 0.007 µM and 0.007 ± 0.002 µM |
| COC(=O)N[C@H](C(=O)N[C@@H](Cc1ccccc1)[C@@H](O)CN(Cc1ccc(-c2ccccn2)cc1)NC(=O)[C@@H](NC(=O)OC)C(C)(C)C)C(C)(C)C [AZV, Atazanavir] |  |  | 0.033 ± 0.024 µM | (17) | 0.065 ± 0.008 µM | (33) | 0.065 ± 0.008 µM | (33) | 0.20 ± 0.10 µM | (100) | 0.027 ± 0.005 µM | (7) | > 1 µM | > 250 | 0.21 ± 0.065 µM | (53) | 0.002 ± 0.001 µM |  |
| Cc1cccc(C)c1OCC(=O)N[C@@H](Cc1ccccc1)[C@@H](O)C[C@H](Cc1ccccc1)NC(=O)[C@H](C(C)C)N1CCCNC1=O [LPV, lopinavir] | > 100 µM | >2,560 | 0.26 ± 0.04 µM | (8) | > 1 µM | > 29 | > 1 µM | > 29 | > 1 µM | > 29 | 0.037 ± 0.004 µM | (1) | > 1 µM | > 22 | 0.12 ± 0.02 µM | (2) | 0.034 ± 0.002 µM | EC50 [2]: > 1000 nM; EC50 (HIV-2ROD; Human immunodeficiency virus 2, MT2, MT-2 cells, MTT assay, mean ± 1 SD, read-out: EC50 (μM) for HIV-2ROD): 0.028 ± 0.004 µM; EC50 (HIV-1LAI; Human immunodeficiency virus 1, MT2, MT-2 cells, MTT assay, mean ± 1 SD, read-out: EC50 (μM) for HIV-1LAI): 0.039 ± 0.006 µM; EC50 (HIV-2EHO; Human immunodeficiency virus 2, MT2, MT-2 cells, MTT assay, mean ± 1 SD, read-out: EC50 (μM) for HIV-2EHO): 0.035 ± 0.025 µM |
